Drawing on patent US11667629B2, “Isoxazole derivative, preparation method therefor, and use thereof” (SICHUAN KELUN-BIOTECH BIOPHARMACEUTICAL CO., LTD., priority 2017, dated 2023), this text covers EC50 and Emax for nine molecules.

SMILES strings stand for the structures.

Assay [1] concerns the target T1, FXR (Homo sapiens, UniProt Q96RI1).
T1 construct: purchased Invitrogen
Briefly: Bile acid receptor FXR coactivator binding assay (LanthaScreen TR-FRET). Type of assay: biochemical. To be noted: for EC50: TR-FRET coactivator assay, four-parameter fit, read-out: EC50 of the compounds on FXR. How it is done: The Invitrogen⋅LanthaScreen™ TR-FRET Farnesoid X Receptor Coactivator Assay kit was employed to determine the activation effect of the compounds on FXR.
After the receptor was incubated with the test compound at various concentrations at room temperature, the fluorescent-labeled coactivator short peptides and terbium-labeled antibody were added, and the FRET signal was detected after the reaction was complete at room temperature. The group without the receptor protein was employed as a blank, the activation effect (EC50) and maximum activation effect signal value (Emax) of the test compounds on FXR were calculated according to the four-parameter fitting equation: y=E min+(E max−E min)/(1+(x/EC50)^(−Hillslope))
A general note: TR-FRET usually uses a lanthanide donor and a delayed reading to cut background.

For assay [2], the target named is T2, FXR (Homo sapiens, UniProt Q96RI1).
T2 construct: expressed in transfected cells; host or cells: HEK293
T2 sequence (Q96RI1 1-486): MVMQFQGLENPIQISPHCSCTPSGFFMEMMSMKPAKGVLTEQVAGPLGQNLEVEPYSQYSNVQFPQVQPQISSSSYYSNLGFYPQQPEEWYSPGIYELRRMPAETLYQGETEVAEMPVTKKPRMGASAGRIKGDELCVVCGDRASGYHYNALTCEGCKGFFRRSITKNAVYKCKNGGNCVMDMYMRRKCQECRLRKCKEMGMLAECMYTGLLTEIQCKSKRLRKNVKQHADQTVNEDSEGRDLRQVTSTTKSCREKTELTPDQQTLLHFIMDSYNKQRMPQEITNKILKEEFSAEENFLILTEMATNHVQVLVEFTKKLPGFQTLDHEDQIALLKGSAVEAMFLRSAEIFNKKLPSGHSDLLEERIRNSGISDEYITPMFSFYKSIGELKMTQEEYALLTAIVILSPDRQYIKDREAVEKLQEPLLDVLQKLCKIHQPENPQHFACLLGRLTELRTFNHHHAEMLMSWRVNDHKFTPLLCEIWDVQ
Briefly: Luciferase reporter gene assay (HEK293 cotransfected with FXR and human BSEP luciferase reporter). To be noted: for EC50: HEK293, 18 hours incubation; for Emax: HEK293, maximum activation effect, relative signal percentage, blank well = 100%. Type of assay: cell-based. How it is done:
Human embryonic kidney cells HEK293 were cultured in a DMEM medium containing 10% FBS. Plasmids were cotransfected to allow the cells to have over expression of FXR and human BSEP luciferase reporter genes. The transfected cells were digested, resuspended, counted, and plated in a multi-well plate. 10 μL of the test compound at various concentrations was added to the multi-well plate to result in final concentrations of 64 μM, 16 μM, 4 μM, 1 μM, 0.25 μM, 0.0625 μM, 0.0156 μM, 0.0039 μM, 0.000975 μM, 0.000244 μM, 0 μM, and the final concentration of DMSO was 0.5%. After the test compound was incubated with the cells for 18 hours, the Brigh-Glo™ detection reagent was added, and the chemical light unit value (RLU) was detected by a multifunctional automatic microplate reader. Taking the signal value of the blank well (without the test compound) as 100%, the relative signal percentage (%) at each concentration of the test compound was calculated. The SigmaPlot 10 software was employed to fit the EC50 and the maximum activation effect Emax (relative signal percentage) of the test compounds using a four-parameter model.
(In general: In a reporter assay the amount or activity of a reporter protein is the signal.)

A word on the EC50: it is the concentration at which the effect is half-maximal. For the molecule `O=C(O)c1cccc(-c2csc(N3CCC(OCc4c(-c5c(Cl)cccc5Cl)noc4C4CC4)CC3)n2)c1` [Compound C1, 3-(2-(4-((5-cyclopropyl-3-(2,6-dichlorophenyl)isoxazol-4-yl)methoxy)piperidin-1-yl)thiazol-4-yl)benzoic acid], in assay [1], the EC50 stood at 178 ± 21 nM.
For `Cn1nc(C(=O)O)cc1-c1ccc(N2CCC(OCc3c(-c4c(Cl)cccc4Cl)noc3C3CC3)CC2)cc1` [Compound C3, 5-(4-(4-((5-cyclopropyl-3-(2,6-dichlorophenyl)isoxazol-4-yl)methoxy)piperidin-1-yl)phenyl)-1-methyl-1H-pyrazole-3-carboxylic acid], in assay [1], the 50% effective concentration (EC50) was determined as 42 ± 7 nM.
Same read-out and setting: under `Cn1nc(C(=O)O)cc1-c1cccc(N2CCC(OCc3c(-c4c(Cl)cccc4Cl)noc3C3CC3)CC2)c1` [Compound C6, 5-(3-(4-((5-cyclopropyl-3-(2,6-dichlorophenyl)isoxazol-4-yl)methoxy)piperidin-1-yl)phenyl)-1-methyl-1H-pyrazole-3-carboxylic acid] stands 206 ± 18 nM.
In the case of `O=C(O)c1ccc(-c2csc(N3[C@@H]4CC[C@H]3C[C@@H](OCc3c(-c5ccccc5OC(F)(F)F)noc3C3CC3)C4)n2)cc1` [Compound C41, 4-(2-((1R,3r,5S)-3-((5-cyclopropyl-3-(2-(trifluoromethoxy)phenyl)isoxazol-4-yl)methoxy)-8-azabicyclo[3.2.1]octan-8-yl)thiazol-4-yl)benzoic acid], in assay [2], the midpoint of the response, the EC50, lay at 58 ± 23 nM and the Emax came to 252%.
In assay [2], `Cc1cc(C(=O)O)ccc1-c1csc(N2[C@@H]3CC[C@H]2C[C@@H](OCc2c(-c4ccccc4OC(F)(F)F)noc2C2CC2)C3)n1` [Compound C42, 4-(2-((1R,3r,5S)-3-((5-cyclopropyl-3-(2-(trifluoromethoxy)phenyl)isoxazol-4-yl)methoxy)-8-azabicyclo[3.2.1]octan-8-yl)thiazol-4-yl)-3-methylbenzoic acid] yielded an EC50 of 33 ± 18 nM and an Emax of 320%.
In the case of `O=C(O)c1ccc(-c2csc(N3[C@@H]4CC[C@H]3C[C@@H](OCc3c(-c5ccccc5OC(F)(F)F)noc3C3CC3)C4)n2)c(F)c1` [Compound C43, 4-(2-((1R,3r,5S)-3-((5-cyclopropyl-3-(2-(trifluoromethoxy)phenyl)isoxazol-4-yl)methoxy)-8-azabicyclo[3.2.1]octan-8-yl)thiazol-4-yl)-3-fluorobenzoic acid], in assay [2], a half-maximal response (EC50) required 37 ± 19 nM and the Emax worked out at 343%.
On to `O=C(O)c1ccc(-c2csc(N3[C@@H]4CC[C@H]3C[C@@H](OCc3c(-c5ccccc5OC(F)(F)F)noc3C3CC3)C4)n2)c(C(F)(F)F)c1` [Compound C45, 4-(2-((1R,3r,5S)-3-((5-cyclopropyl-3-(2-(trifluoromethoxy)phenyl)isoxazol-4-yl)methoxy)-8-azabicyclo[3.2.1]octan-8-yl)thiazol-4-yl)-3-(trifluoromethyl)benzoic acid], for which the EC50 in assay [1] stood at 110 ± 21 nM. In assay [1] (read-out: Relative activation effect), the Emax was determined as 113%.
`O=C(O)c1cc(-c2csc(N3[C@@H]4CC[C@H]3C[C@@H](OCc3c(-c5ccccc5OC(F)(F)F)noc3C3CC3)C4)n2)cs1` [Compound C47, 4-(2-((1R,3r,5S)-3-((5-cyclopropyl-3-(2-(trifluoromethoxy)phenyl)isoxazol-4-yl)methoxy)-8-azabicyclo[3.2.1]octan-8-yl)thiazol-4-yl)thiophene-2-carboxylic acid]: in assay [2], the EC50 was determined as 19 ± 7 nM and the Emax is 370%.
On the same counts, the results for `O=C(O)c1csc(-c2csc(N3[C@@H]4CC[C@H]3C[C@@H](OCc3c(-c5ccccc5OC(F)(F)F)noc3C3CC3)C4)n2)c1` [Compound C48, 5-(2-((1R,3r,5S)-3-((5-cyclopropyl-3-(2-(trifluoromethoxy)phenyl)isoxazol-4-yl)methoxy)-8-azabicyclo[3.2.1]octan-8-yl)thiazol-4-yl)thiophene-3-carboxylic acid] are 39 ± 17 nM and 382%.
